Patent publication US8389739B1, “Modulators of retinoid-related orphan receptor gamma” (Orphagen Pharmaceuticals, priority 2006, dated 2013)
One block for each compound: values may come before it.

Key:
RORα (mRORα) = molecular target: T1, RORα (mRORα) (Mus musculus, UniProt P51448); test: Transcriptional assay of RORα as GAL4 hybrid; format: cell-based; conditions: same format as the GAL4-RORγ assay
T1 construct: mRORα (NR1F1, aa 266-523); expressed in transfected cells; host or cells: CHO cells, transient transfection
Method: This example also describes several additional tests that were commonly performed to confirm the authenticity of a hit to RORγ. These tests also verified the validity of the transcriptional and biochemical assays used. […] In some cases, close analogs of a confirmed hit were obtained by synthesis or purchase from a commercial source. The series of compounds related to the confirmed hit was then tested in the biochemical and transcriptional assays. The rank order of the potency of the compounds was then compared. […] The data imply in turn that the compounds are binding to the same binding pocket. […]
Four hours after transfection, cells were dislodged with trypsin and seeded into a 384-well plate at 8,000 cells/well using a Titertek Multidrop 384. […] After incubation for 2 hours at 37 degrees centigrade, the conversion of resazurin to resorufin was measured by fluorescence (excitation at 570 nm and emission at 615 nm). […] Percent viability was determined as 2 hour fluorescence, minus background at t=0 hours, normalized to DMSO controls. […] Luminescence is detected with a Victor 2-V plate reader (Perkin-Elmer) and normalized to luciferase activity of DMSO control wells alone.

[1] = system: IL-17 release and TH-17 cells in lymph node cultures; test: Lymph node cell cultures from PLP-immunized SJL/J mice, IL-17 ELISA and Th-17 FACS; format: cell-based
Method: FIGS. 13A-F. IL-17 levels in lymph node cells from mice immunized with myelin-derived peptides respond to cognate peptide antigens, IL-23 and RORγ ligands. (FIG. 13A) SJL/J mice were immunized by complete Freund's adjuvant (CFA) only or by Proteolipid Protein residues 139-151 (PLP139-151) emulsified in CFA. Lymph nodes were cultured for 3 days in with or without 40 μg/ml PLP in the presence or absence of OR-885. Culture media were analyzed by ELISA for IL-17. (FIGS. 13B-C) Lymph node cells from PLP-immunized SJL/J mice were cultured as before with the addition of 10 ng/ml IL-23 and 3 μM compounds. At the end of 1 day or 3 days in culture, Th-17 (CD4^+CD8^−IL17^+) cell frequency was measured by FACS (FIG. 13B) and compared to IL-17 levels in culture media (FIG. 13C). (FIGS. 13D-F) Lymph node cells from MOG35-55 immunized C57BL/6 mice were cultured for 3 days with 30 μg/ml MOG and/or 10 ng/ml IL-23. RORγ ligands were not added (FIG. 13D), or added at the beginning of the culture at a single concentration (FIG. 13E, 1 μM) or in multiple doses (FIG. 13F).
FIG. 14. Inhibition of IL-17 release in mouse lymph node cultures by the RORγ antagonist OR-885 can be reversed by the RORγ agonist OR-12872. The lymph node cells were culture in the presence of 10 ng/mL IL-23 and 40 μg/mL PLP for three days under identical conditions to FIG. 13 and IL-17 in the culture supernatant was measured by ELISA.
ELISA kits for mouse IL-17 and human IL-17 were from eBioscience (San Diego, Calif.). ELISA assays were performed following the manufacturer's protocol. Certain samples were diluted 20-fold to avoid maximization of enzymatic signals. For mouse IL-22 ELISA, antibodies and standards were from Antigenix America (Huntington Station, N.Y.) and accessory components were from eBioscience. The IL-22 assay protocol was similar to that of the IL-17 assays. […]

T1 sequence (P51448 266-523): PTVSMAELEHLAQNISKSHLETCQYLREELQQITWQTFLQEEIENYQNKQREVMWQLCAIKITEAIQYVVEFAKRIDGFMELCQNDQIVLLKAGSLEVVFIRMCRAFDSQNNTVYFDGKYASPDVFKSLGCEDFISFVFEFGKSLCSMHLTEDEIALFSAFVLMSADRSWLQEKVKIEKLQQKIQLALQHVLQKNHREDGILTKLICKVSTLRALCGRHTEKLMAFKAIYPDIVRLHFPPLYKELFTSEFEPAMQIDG

effect on the transcription of RORα (RORα (mRORα)): no effects
SMILES: CCN(c1ccc(C(O)(C(F)(F)F)C(F)(F)F)cc1)S(=O)(=O)c1ccc([N+](=O)[O-])cc1 [OR-1050, N-Ethyl-4-nitro-N-[4-(2,2,2-trifluoro-1-hydroxy-1-trifluoromethyl-ethyl)-phenyl]-benzenesulfonamide]

effect on the transcription of RORα (RORα (mRORα)): no effects
SMILES: O=S(=O)(c1ccccc1)N(CC(F)(F)F)c1ccc(C(O)(C(F)(F)F)C(F)(F)F)cc1 [Compound T0901317, N-(2,2,2-Trifluoro-ethyl)-N-[4-(2,2,2-trifluoro-1-hydroxy-1-trifluoromethyl-ethyl)-phenyl]-benzenesulfonamide, reference compound]

SMILES: COC(C)CCC(C)C1CCC2C3CC(O)C4CC(O)CCC4(C)C3CCC12C (centres unmarked) [OR-12872, 17-(4-Methoxy-1-methyl-pentyl)-10,13-dimethyl-hexadecahydro-cyclopenta[a]phenanthrene-3,6-diol]
reversal of antagonist suppression of IL-17 release ([1]; 10 ng/mL IL-23 and 40 μg/mL PLP, three days (FIG. 14)): reverses the suppressive effects of OR-885 on IL-17 release

SMILES: C[C@@H]1CC[C@@]2(OC1)O[C@H]1C[C@H]3[C@@H]4CC[C@H]5C[C@@H](O)CC[C@]5(C)[C@H]4C[C@@H](O)[C@]3(C)[C@H]1[C@@H]2C [OR-885, 5α,20α, 22α, 25D-SPIROSTAN-3β, 12β-DIOL]
induction of TH-17 cells (as a percentage of total live cells) ([1]; PLP, 10 ng/ml IL-23, 3 μM compounds (FIG. 13B)): block
PLP-stimulated release of IL-17 ([1]; lymph node cultures, 40 μg/ml PLP, 3 days): inhibited
